From ChEMBL document CHEMBL1201862, “PubChem BioAssay data set” (2004)
Active and inactive are the calls of the source.

Assays:
[1] = target: T1, Adenosylmethionine-8-amino-7-oxononanoate aminotransferase (Mycobacterium tuberculosis, UniProt P9WQ81); test: Mycobacterium tuberculosis BioA enzyme inhibitor Measured in Biochemical System Using Plate Reader - 2163-02_Inhibitor_Dose_CherryPick_Activity.; type: functional, Mycobacterium tuberculosis UT205
T1 sequence (P9WQ81 whole entry): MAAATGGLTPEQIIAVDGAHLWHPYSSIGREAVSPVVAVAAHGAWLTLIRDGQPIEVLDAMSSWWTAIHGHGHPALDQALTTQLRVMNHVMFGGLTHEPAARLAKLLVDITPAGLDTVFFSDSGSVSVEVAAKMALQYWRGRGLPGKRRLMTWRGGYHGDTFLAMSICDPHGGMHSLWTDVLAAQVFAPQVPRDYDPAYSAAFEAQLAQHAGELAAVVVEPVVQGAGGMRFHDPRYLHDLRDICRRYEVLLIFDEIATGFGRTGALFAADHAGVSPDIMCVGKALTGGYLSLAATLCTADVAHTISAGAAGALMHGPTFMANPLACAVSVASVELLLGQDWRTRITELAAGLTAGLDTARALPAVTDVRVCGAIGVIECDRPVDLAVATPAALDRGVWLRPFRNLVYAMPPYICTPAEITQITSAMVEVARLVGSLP

[2] = target: FAD-linked sulfhydryl oxidase ALR (Homo sapiens, UniProt P55789); test: ALR-catalysed DTT oxidation blockers – biochemical, H2O2 detection, luminescence, cherry-pick, dose response (AID 493248)
[3] = target: Induced myeloid leukemia cell differentiation protein Mcl-1 (Homo sapiens, UniProt Q07820); type: functional
[4] = viability of HCT116 lacking mutant beta-catenin – cell-based, human colon tumor, dose response (AID 1045); type: functional;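 also: HCT116 colon tumor cells with beta catenin knocked out; cells exposed to compound for 60 hours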
[5] = test system: BJ; test: growth inhibition of engineered Ras-driven BJ cells – cell-based, alamar blue fluorescence, cherrypicked samples, dose response (AID 2631); type: functional; conditions: Homo sapiens;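 also: confirmatory dose-response assay in RAS-dependent BJ fibroblasts engineered with TERT, LT and ST, with cytotoxicity read by fluorescence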
[6] = test system: BJ; test: BJ-TERT fibroblast viability loss – cell-based, RAS-independent, luminescence, dose response (AID 1933); type: functional; conditions: Homo sapiens
[7] = viability of PTEN-deleted HCT116 cells – cell-based, HCT116 PTEN knockout, dose response (AID 1047); type: functional;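 also: HCT116 colon tumor cells with PTEN knocked out; cells exposed to compound for 60 hours before readout; potency for loss of cell viability measured by luminescence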
[8] = test system: BJ; test: cells; type: functional, cell-based; conditions: Homo sapiens
[9] = DRD fibroblast viability loss – cell-based, non-viral oncogenic, luminescence, dose response (AID 1934); type: functional; conditions: Homo sapiens
[10] = test system: BJ; test: BJ-TERT-LT-ST fibroblast viability loss – cell-based, RAS-independent, luminescence, dose response (AID 1935); type: functional; conditions: Homo sapiens;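 also: BJ fibroblasts immortalized with TERT plus LT and ST oncogenes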
[11] = microbe, parasite or virus in culture; type: functional; conditions: Mycobacterium tuberculosis
[12] = target: T2, Protein RecA (Mycobacterium tuberculosis, UniProt P9WHJ3); test: Fluorescence Cell-Free Homogeneous Dose Retest to Identify Inhibitors of RecA-Intein Splicing Activity. [Related pubchem assays (depositor defined):AID2097, AID2223, AID489010, AID492950]; type: functional
T2 sequence (P9WHJ3 whole entry): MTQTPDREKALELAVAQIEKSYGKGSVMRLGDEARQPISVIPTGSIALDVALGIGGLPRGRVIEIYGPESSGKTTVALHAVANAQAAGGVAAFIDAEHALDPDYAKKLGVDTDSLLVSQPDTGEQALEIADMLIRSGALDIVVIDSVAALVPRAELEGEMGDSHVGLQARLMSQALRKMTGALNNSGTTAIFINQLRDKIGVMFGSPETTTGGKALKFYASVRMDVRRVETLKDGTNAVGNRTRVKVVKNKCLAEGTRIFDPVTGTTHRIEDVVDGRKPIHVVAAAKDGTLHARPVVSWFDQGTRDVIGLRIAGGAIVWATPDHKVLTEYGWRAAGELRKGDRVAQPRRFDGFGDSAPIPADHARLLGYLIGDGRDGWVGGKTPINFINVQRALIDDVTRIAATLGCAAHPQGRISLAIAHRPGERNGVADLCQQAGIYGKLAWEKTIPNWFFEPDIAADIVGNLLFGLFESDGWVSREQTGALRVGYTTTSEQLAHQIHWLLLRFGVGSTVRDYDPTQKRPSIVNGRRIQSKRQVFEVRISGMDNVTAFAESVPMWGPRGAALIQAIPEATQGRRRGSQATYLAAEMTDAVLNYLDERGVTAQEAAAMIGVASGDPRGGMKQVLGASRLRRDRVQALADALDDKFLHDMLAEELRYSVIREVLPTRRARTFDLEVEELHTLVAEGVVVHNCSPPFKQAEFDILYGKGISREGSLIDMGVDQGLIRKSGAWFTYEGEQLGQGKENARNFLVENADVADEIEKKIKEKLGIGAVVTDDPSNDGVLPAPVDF

[13] = target: T3, Replicative DNA helicase DnaB (Mycobacterium tuberculosis, UniProt P9WMR3); test: DnaB intein splicing inhibitors, dose response, biochemical, cell-free fluorescence (AID 449749); type: functional
T3 sequence (P9WMR3 whole entry): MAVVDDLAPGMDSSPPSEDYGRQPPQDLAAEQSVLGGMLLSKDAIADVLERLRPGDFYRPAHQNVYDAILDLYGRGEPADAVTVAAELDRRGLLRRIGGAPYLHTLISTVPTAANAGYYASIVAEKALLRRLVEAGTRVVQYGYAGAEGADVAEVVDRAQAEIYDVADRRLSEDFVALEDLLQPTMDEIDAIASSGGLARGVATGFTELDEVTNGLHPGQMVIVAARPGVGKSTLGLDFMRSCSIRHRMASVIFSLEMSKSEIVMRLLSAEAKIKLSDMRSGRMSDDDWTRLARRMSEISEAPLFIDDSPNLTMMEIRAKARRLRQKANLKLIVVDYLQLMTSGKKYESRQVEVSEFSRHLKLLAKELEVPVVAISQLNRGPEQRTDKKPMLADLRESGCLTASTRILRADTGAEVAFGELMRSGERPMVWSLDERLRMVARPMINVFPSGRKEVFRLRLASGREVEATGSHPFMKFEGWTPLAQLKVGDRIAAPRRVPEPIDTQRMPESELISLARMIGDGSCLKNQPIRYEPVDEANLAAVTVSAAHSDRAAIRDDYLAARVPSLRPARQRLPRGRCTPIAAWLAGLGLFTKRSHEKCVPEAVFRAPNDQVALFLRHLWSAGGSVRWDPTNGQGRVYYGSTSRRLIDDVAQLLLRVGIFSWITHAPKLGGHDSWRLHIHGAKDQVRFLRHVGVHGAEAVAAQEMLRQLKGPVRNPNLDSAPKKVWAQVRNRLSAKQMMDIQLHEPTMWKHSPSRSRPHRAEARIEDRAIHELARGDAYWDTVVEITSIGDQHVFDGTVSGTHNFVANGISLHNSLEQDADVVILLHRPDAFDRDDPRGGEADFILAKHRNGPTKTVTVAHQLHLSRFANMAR

[14] = target: T4, High affinity choline transporter 1 (Homo sapiens, UniProt Q9GZV3); test: human choline transporter blockers, potency – cell-based, 5-point CRC, membrane potential dye, dose response (AID 504840); type: functional
T4 sequence (Q9GZV3 whole entry): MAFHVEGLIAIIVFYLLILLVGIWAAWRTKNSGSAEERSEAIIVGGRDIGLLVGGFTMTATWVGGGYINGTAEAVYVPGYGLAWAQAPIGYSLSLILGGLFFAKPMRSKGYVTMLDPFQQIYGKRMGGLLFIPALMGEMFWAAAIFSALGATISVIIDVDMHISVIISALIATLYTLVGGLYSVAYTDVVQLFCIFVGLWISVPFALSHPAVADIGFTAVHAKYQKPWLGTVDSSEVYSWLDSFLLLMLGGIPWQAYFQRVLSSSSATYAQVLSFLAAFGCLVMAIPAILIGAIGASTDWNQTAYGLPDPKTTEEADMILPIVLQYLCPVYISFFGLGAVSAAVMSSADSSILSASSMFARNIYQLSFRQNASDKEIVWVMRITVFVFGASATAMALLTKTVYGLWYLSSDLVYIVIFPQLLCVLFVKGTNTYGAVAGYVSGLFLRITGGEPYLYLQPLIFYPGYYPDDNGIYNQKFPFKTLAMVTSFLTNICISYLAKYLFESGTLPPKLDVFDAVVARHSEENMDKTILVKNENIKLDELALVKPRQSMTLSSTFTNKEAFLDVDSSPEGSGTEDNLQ

[15] = target: T5, Short transient receptor potential channel 4 (Mus musculus, UniProt Q9QUQ5); test: calcium entry via TRPC4 opening agents – cell-based, HEK293 TRPC4/mu-opioid, Fluo-4 calcium, dose response (AID 434937); type: functional
T5 sequence (Q9QUQ5 whole entry): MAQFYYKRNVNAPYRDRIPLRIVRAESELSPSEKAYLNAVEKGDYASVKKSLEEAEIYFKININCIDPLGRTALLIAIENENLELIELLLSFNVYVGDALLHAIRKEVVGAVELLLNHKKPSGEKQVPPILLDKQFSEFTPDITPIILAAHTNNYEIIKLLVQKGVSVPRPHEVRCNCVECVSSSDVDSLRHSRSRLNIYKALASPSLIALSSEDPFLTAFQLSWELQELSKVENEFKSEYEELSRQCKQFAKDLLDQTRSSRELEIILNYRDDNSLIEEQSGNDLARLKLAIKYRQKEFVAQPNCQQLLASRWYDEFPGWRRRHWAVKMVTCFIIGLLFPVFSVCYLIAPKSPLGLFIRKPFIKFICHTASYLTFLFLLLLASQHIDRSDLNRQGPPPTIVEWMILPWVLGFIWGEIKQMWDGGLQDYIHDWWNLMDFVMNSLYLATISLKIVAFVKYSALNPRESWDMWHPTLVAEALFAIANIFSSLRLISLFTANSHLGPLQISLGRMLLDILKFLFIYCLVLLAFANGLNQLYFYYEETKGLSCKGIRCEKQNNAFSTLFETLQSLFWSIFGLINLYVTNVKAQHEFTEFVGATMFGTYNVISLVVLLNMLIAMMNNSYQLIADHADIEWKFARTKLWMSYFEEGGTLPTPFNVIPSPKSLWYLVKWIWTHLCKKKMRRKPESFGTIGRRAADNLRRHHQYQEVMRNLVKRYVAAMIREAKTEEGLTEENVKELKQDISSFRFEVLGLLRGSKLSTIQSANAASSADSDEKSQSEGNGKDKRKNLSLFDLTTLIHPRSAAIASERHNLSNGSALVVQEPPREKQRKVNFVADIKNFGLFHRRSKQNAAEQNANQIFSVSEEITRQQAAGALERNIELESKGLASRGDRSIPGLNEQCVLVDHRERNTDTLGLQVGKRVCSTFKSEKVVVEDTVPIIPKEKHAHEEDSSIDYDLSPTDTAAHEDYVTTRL

[16] = test system: Streptococcus; test: GAS UMAA2166 growth inhibition – luminescence, BacTiterGlo, counter-screen for streptokinase expression inhibitor project, dose response (AID 1915); type: functional, organism-based;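 also: potency for reduction of bacterial viability or growth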
[17] = test system: HEK293; test: cells; type: functional, cell-based; conditions: Homo sapiens
[18] = test system: HEK293; test: NOD2 signaling inhibitors in MDP-stimulated cells, cell-based, uHTS, luminescence (AID 2001); type: functional; conditions: Homo sapiens
[19] = test system: HEK293; test: cells; type: functional, cell-based; conditions: Homo sapiens; remark: listed apart in the source
[20] = test system: Streptococcus sp. 'group A'; test: Streptococcus pyogenes SK(-)GAS viability under kanamycin – luminescence, BacTiterGlo, confirmation, counter-screen for streptokinase expression inhibitor project, dose response (AID 1900); type: functional, organism-based
[21] = test system: HEK293; test: inhibition of NOD1-driven NF-kB reporter – cell-based, luminescence, uHTS, primary screen (AID 1578); type: functional; conditions: Homo sapiens
[22] = viability loss in THP-1 monocytes – THP-1 cells, cytotoxicity control for Vif-APOBEC3G degradation inhibitor project, dose response (AID 1117359); type: functional; conditions: THP-1

Chain of FAD-linked sulfhydryl oxidase ALR (P55789 whole entry): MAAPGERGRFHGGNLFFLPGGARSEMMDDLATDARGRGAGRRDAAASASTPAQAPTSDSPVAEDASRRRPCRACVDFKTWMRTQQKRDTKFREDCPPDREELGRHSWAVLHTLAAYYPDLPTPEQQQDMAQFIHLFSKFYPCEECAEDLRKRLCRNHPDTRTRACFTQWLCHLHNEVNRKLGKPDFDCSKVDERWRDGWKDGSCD
Chain of Induced myeloid leukemia cell differentiation protein Mcl-1 (Q07820 whole entry): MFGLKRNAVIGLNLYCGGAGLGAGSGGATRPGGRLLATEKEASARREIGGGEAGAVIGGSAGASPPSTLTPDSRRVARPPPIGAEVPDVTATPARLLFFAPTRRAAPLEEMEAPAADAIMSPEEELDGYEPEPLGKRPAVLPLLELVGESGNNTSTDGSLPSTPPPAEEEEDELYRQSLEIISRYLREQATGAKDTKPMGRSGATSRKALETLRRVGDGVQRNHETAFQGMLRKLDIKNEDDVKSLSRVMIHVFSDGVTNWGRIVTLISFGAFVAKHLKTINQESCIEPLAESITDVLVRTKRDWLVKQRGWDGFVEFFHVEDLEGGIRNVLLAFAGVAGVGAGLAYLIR

Row | SMILES | AC50 [1] | EC50 [5] | EC50 [6] | EC50 [8] | EC50 [9] | EC50 [10] | further results
1 | COc1ccc(NC2c3ccccc3C(=O)N2c2cccnc2)cc1Cl (stereo not given) | 4.04 µM (active) | – | – | – | – | – | AC50 [2]: 4.34 µM (active)
2 | CC(=O)N1CC[C@@H]2[C@@H](CO)N(C)c3ccc(-c4cccc(F)c4)cc3[C@@H]21 | 0.832 µM (active) | – | – | – | – | – | –
3 | CCOc1ccccc1Nc1nc(-c2sc(NC(=O)c3ccc([N+](=O)[O-])cc3)nc2C)cs1 | – | > 133 µM (inactive) | 7.64 µM (active) | 12.7 µM (active) | 7.92 µM (active) | > 150 µM (inconclusive) | IC50 [3]: 13.4 µM (active); EC50 [4]: 7.38 µM (active); EC50 [7]: 9.09 µM (active)
4 | Cc1ccc(C2CC(c3cccs3)=NN2C(=O)CCl)cc1 (stereo not given) | – | 2.87 µM (active) | 0.911 µM (active) | 5.54 µM (active) | 5.15 µM (inconclusive) | 6 µM (active) | CC50 [11]: 2.24 µM (active); EC50 [12]: 0.943 µM (active); AC50 [13]: 1.23 µM (active)
5 | O=c1c2cc(Br)ccc2nc(-c2ccc(Cl)cc2)n1O | – | – | – | – | – | – | IC50 [14]: 5.01 µM (active); EC50 [15]: 6.68 µM (active); EC50 [16]: 2.6 µM (active); IC50 [17]: > 20 µM (inactive); IC50 [18]: 14.2 µM (inactive); IC50 [19]: > 20 µM (inactive); EC50 [20]: 1.24 µM (active); EC50 [21]: 6.02 µM (active)
6 | Cc1cc(C(=O)CSc2nncs2)c(C)n1-c1ccc2c(c1)OCO2 | 1.67 µM (active) | – | – | – | – | – | –
7 | COc1cc(C(=O)Nc2cccnc2)cc(OC)c1OC | 2.14 µM (active) | – | – | – | – | – | –
8 | COc1ccc(C)cc1Nc1c2c(nc3ccccc13)CCC2 | – | 0.174 µM (active) | 3.98 µM (inconclusive) | 15.1 µM (inconclusive) | 7.71 µM (inconclusive) | 1 µM (inconclusive) | CC50 [22]: 0.62 µM (active)
